Values quoted from earlier work, collected in patent publication US4276288A, “Dehydrooligopeptides, their production and their medicinal use” (Troponwerke GmbH & Co., KG, priority 1976, dated 1981).
Where two headings read alike, the source gives them in different places.

System: tumour cells

O=P1(N(CCCl)CCCl)NCCCO1 (centres unmarked) [cyclophosphamide]
tumour cells destroyed (LD10 dosage): 99.999%
tumour cells destroyed (one eighth of the LD10 dose): 90%
